In PubChem BioAssay AID2060486 (Molecular Pharmacology Branch, DTP, NCI, 2025):
pIC50: −log10 of the molar value. “And” between values parts separate entries of the source, which are not always exact repeats. Equal entries are not always repeated.

Tested on: IGROV1 complex spheroids (HUVEC, MSC), viability % test/control
Assay: Anticancer human tumor IGROV1 cell line growth inhibition [GQUAD];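 also: spheroids exposed to compounds for 7 days before readout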
Settings: for viability, T/C: stronger effect = lower value
From the text: DNA G-quadruplex Stabilizer Agents in Combinations in Complex Spheroids
A high-throughput screen of multi-cell type tumor spheroids was designed to identify active combinations of DNA G-quadruplex stabilizer agents and targeted small molecules. Complex spheroids include a stromal component modeled by human endothelial cells (HUVEC) and fibroblasts modeled by human mesenchymal stem cells (MSCs). The concentration ranges selected for each drug and investigational agent were based upon clinically achievable concentrations if the clinical Cmax of the agent was known.
Compounds. The drugs and investigational agents: pidnarulex (CX-5461; NSC782164), APTO-253 (NSC789042), BRACO-19 (NSC847499), peposertib (NSC802822), ceralasertib (NSC780249), elimusertib (NSC800525), camonsertib (NSC841442), AZD-1390 (NSC803789), olaparib (NSC753686), talazoparib (NSC767125), ART-558 (NSC835418), sotorasib (NSC818433), MRTX-1133 (NSC836407), SN-38 (NSC673596), topotecan (NSC609699), etoposide (NSC141540), doxorubicin (NSC123127), gemcitabine (NSC613327), 5-fluorouracil (NSC19893), paclitaxel (NSC125973), vemurafenib (NSC761431), panobinostat (NSC761190), R-306465 (JNJ-16241199; NSC773264), adavosertib (NSC754352), TP-3654 (NSC805149), carboplatin (NSC241240), KSQ-4279 (NSC840948), and staurosporine (NSC755774) were obtained from the National Cancer Institute (NCI) Developmental Therapeutics Program Chemical Repository (34). The FDA-approved anticancer drug set is available from the NCI Developmental Therapeutics Program. […] The stock solutions were prepared in dimethyl sulfoxide (DMSO, Sigma-Aldrich, St. Louis, MO, cat. D2650) at 800-fold the tested concentration and stored at -70 degrees C prior to their use. All drugs and investigational agents were tested over a range starting from a high concentration at or near the clinical Cmax and decreasing in half-log increments. If the clinical Cmax for an agent had not been determined, the highest concentration tested was 10 microM.
2.3 Cell Culture. All cells were maintained in an incubator at 37 degrees C and 5% CO2 with 95% humidity. The PDC lines were cultured according to standard operating procedures established by the NCI PDMR. All PDCs were thawed and cultured in Matrigel-coated flasks prepared with a working solution of 1X Ham's F-12 nutrient mix, without supplementation (Invitrogen, cat. 11765054), 100 U/mL penicillin-streptomycin (Invitrogen, cat. 15140122), and 2.5% Matrigel (Corning Inc., cat. 354248) for the first three passages. The 857933-349-R-J2-PDC line was cultured in 6C/Colon 1B media, which includes advanced DMEM/F-12 (Thermo Fisher Scientific, cat. 12634028), 10 mM HEPES (Thermo Fisher Scientific, cat. 15630080), 1X GlutaMAX supplement (Thermo Fisher Scientific, cat. 35050061), 0.1 mg/mL primocin (InvivoGen, cat. ant-pm-2), 10% defined fetal bovine serum, heat inactivated (HyClone Laboratories Inc., cat. SH30070.03HI), 50% L-WRN conditioned media (ATCC, cat. CRL-3276), 1.25 mM N-Acetyl-L-cysteine (Sigma-Aldrich, cat. A9165), 10 mM nicotinamide (Sigma-Aldrich, cat. N0636), 1X B-27 supplement (Thermo Fisher Scientific, cat. 17504044), 1X N-2 supplement (Thermo Fisher Scientific, cat. 17502048), 10 microM Y-27632 dihydrochloride (Tocris Bioscience, cat. 1254), and 50 ng/mL human EGF recombinant protein (Thermo Fisher Scientific, cat. PHG0311). The 485176-168-R4-J1-PDC line was cultured in Panc media, which includes all 6C/Colon 1B media components plus 100 ng/mL human FGF-10 (Thermo Fisher Scientific, cat. 100-26), 500 nM SB-431542 (Selleckchem, cat. S1067), and gastrin (Tocris, cat. 3006).
[…]

SMILES: CN(C)c1ccc(Nc2c3ccc(NC(=O)CCN4CCCC4)cc3nc3cc(NC(=O)CCN4CCCC4)ccc23)cc1
- viability, T/C (compound 0.0316 µM): 103% [middle of 12 runs]
- viability, T/C (compound 0.1 µM): 101% [middle of 12 runs]
- viability, T/C (compound 0.316 µM): 103% [middle of 12 runs]
- viability, T/C (compound 1 µM): 100% [middle of 12 runs]
- viability, T/C (compound 3.16 µM): 87.4% [middle of 12 runs]
- viability, T/C (compound 10 µM): 52.3% [middle of 12 runs]

SMILES: O=C(NO)c1cnc(N2CCN(S(=O)(=O)c3ccc4ccccc4c3)CC2)nc1 + Cc1cnc(CNC(=O)c2c(=O)c3ccc(N4CCCN(C)CC4)nc3n3c2sc2ccccc23)cn1
- pIC50 (curve of first compound, second compound 0.0316 µM): > 7.50
- pIC50 (curve of first compound, second compound 0.1 µM): > 7.50
- pIC50 (curve of first compound, second compound 0.316 µM): > 7.50
- pIC50 (curve of first compound, second compound 1 µM): > 7.50
- pIC50 (curve of first compound, second compound 3.16 µM): > 7.50
- pIC50 (curve of first compound, second compound 10 µM): > 7.50
- viability, T/C (second compound 0.0316 µM, first compound 0.0316 µM): 49.6%
- viability, T/C (second compound 0.0316 µM, first compound 0.1 µM): 21.8%
- viability, T/C (second compound 0.0316 µM, first compound 0.316 µM): 4.13%
- viability, T/C (second compound 0.0316 µM, first compound 1 µM): 0.2%
- viability, T/C (second compound 0.0316 µM, first compound 3.16 µM): 0.06%
- viability, T/C (second compound 0.0316 µM, first compound 10 µM): 0.06%
- viability, T/C (second compound 0.1 µM, first compound 0.0316 µM): 16.4%
- viability, T/C (second compound 0.1 µM, first compound 0.1 µM): 10.6%
- viability, T/C (second compound 0.1 µM, first compound 0.316 µM): 2.94%
- viability, T/C (second compound 0.1 µM, first compound 1 µM): 0.19%
- viability, T/C (second compound 0.1 µM, first compound 3.16 µM): 0.06%
- viability, T/C (second compound 0.1 µM, first compound 10 µM): 0.05%
- viability, T/C (second compound 0.316 µM, first compound 0.0316 µM): 11%
- viability, T/C (second compound 0.316 µM, first compound 0.1 µM): 9.94%
- viability, T/C (second compound 0.316 µM, first compound 0.316 µM): 2.34%
- viability, T/C (second compound 0.316 µM, first compound 1 µM): 0.05%
- viability, T/C (second compound 0.316 µM, first compound 3.16 µM): 0.03%
- viability, T/C (second compound 0.316 µM, first compound 10 µM): 0.05%
- viability, T/C (second compound 1 µM, first compound 0.0316 µM): 8.18%
- viability, T/C (second compound 1 µM, first compound 0.1 µM): 8.18%
- viability, T/C (second compound 1 µM, first compound 0.316 µM): 1.32%
- viability, T/C (second compound 1 µM, first compound 1 µM): 0.04%
- viability, T/C (second compound 1 µM, first compound 3.16 µM): 0.03%
- viability, T/C (second compound 1 µM, first compound 10 µM): 0.05%
- viability, T/C (second compound 3.16 µM, first compound 0.0316 µM): 5.96%
- viability, T/C (second compound 3.16 µM, first compound 0.1 µM): 4.03%
- viability, T/C (second compound 3.16 µM, first compound 0.316 µM): 0.06%
- viability, T/C (second compound 3.16 µM, first compound 1 µM): 0.04%
- viability, T/C (second compound 3.16 µM, first compound 3.16 µM): 0.05%
- viability, T/C (second compound 3.16 µM, first compound 10 µM): 0.06%
- viability, T/C (second compound 10 µM, first compound 0.0316 µM): 6.31%
- viability, T/C (second compound 10 µM, first compound 0.1 µM): 6.49%
- viability, T/C (second compound 10 µM, first compound 0.316 µM): 0.09%
- viability, T/C (second compound 10 µM, first compound 1 µM): 0.07%
- viability, T/C (second compound 10 µM, first compound 3.16 µM): 0.1%
- viability, T/C (second compound 10 µM, first compound 10 µM): 0.1%

SMILES: Cc1[nH]c2ccccc2c1CCNCc1ccc(/C=C/C(=O)NO)cc1
- viability, T/C (compound 0.000999 µM): 108% and 102% and 86.4%
- viability, T/C (compound 0.00316 µM): 89.8% and 85.8% and 90.5%
- viability, T/C (compound 0.00999 µM): 83.8% and 79.4% and 81.5%
- viability, T/C (compound 0.0316 µM): 34.2% and 33.4% and 38.3%
- viability, T/C (compound 0.0999 µM): 4.41% and 3.52% and 3.65%
- viability, T/C (compound 0.316 µM): 0.26% (2×) and 0.27%
- pIC50 (curve of compound): 7.66 and 7.69 and 7.63

SMILES: COc1ncnc(C2CC2)c1-c1ncc2cnn(Cc3ccc(-c4nc(C(F)(F)F)cn4C(C)C)cc3)c2n1
- viability, T/C (compound 0.0316 µM): 99.3% and 85% and 100%
- viability, T/C (compound 0.1 µM): 82.7% and 93.3% and 87%
- viability, T/C (compound 0.316 µM): 94.9% and 98.1% and 93%
- viability, T/C (compound 1 µM): 90.1% and 91.9% and 96.5%
- viability, T/C (compound 3.16 µM): 78.2% and 69.5% and 96.9%
- viability, T/C (compound 10 µM): 94.5% and 82.1% and 77.6%
- pIC50 (curve of compound): < 5.00
